In US20040266723A1, “Antiviral agents for treatment of Flaviviridae infections” (priority 2000, published 2004):
Read-outs that look alike come from different tables or passages of the source. Values belong to the compound of their own block, whether it stands above or below them.

Legend:
BVDV [1] = test: BVDV real time RT-PCR antiviral assay in MDBK cells; type: cell-based, Bovine viral diarrhea virus (BVDV), strain NADL; conditions: for max log reduction Viral Load / virus production / viral RNA versus negative control: MDBK cells; for Selectivity Index (24 hrs/24 hrs) CC50/EC90: MDBK CC50 24 hrs / antiviral EC90 24 hrs; for virus production / viral RNA versus negative control: MOI 0.02, 22 hours, real time RT-PCR
Experimental: As one illustration of this method, in the case of BVDV in MDBK cells, in a first step, viral RNA is isolated from 140 μL of the cell culture supernatant by means of a commercially available column (Viral RNA extraction kit, QiaGen, CA). The viral RNA is then eluted from the column to yield a total volume of 60 μL, and subsequently amplified with a quantitative RT-PCR protocol using a suitable primer for the BVDV NADL strain. A quenched fluorescent probe molecule is hybridized to the BVDV DNA, which then undergoes exonucleolytic degradation resulting in a detectable fluorescent signal. Therefore, the RT-PCR amplified DNA was detected in real time by monitoring the presence of fluorescence signals. The TaqMan probe molecule (5′ 6-fam-[…]-tamara 3′ [Sequence ID No. 7] and primers (sense: 5′-[…]-3′ [Sequence ID No. 8]; and antisense: 5′-[…]-3′ [Sequence ID No. 9]) were designed with the aid of the Primer Express software (PE-Applied Biosystems) to be complementary to the BVDV NADL NS5B region. A total of 10 μL of RNA was analyzed in a 50 μL RT-PCR mixture. Reagents and conditions used in quantitative PCR were purchased from PE-Applied Biosystems. The standard curve that was created using the undiluted inoculum virus ranged from 6000 plaque forming units (PFU) to 0.6 PFU per RT-PCR mixture.
Maldin-Darby bovine kidney (MDBK) cells were grown and maintained in a modified eagle medium (DMEM/F12; GibcoBRL), supplemented with 10% heat inactivated horse serum at 37° C. in a humidified, 5% CO2, incubator.
Bovine viral diarrhea virus (BVDV), strain NADL, causes a cytopathogenic effect (CPE) after infection of these cells.
Cells that were not treated with a test compound were considered a negative control, while ribavirin served as a positive control. Viral RNA was extracted and analyzed by real time RT-PCR.
Controls were Ribavirin and the polyoxymetalate HPA-023 in these experiments.

[2] = Cytotoxicity in MDBK cells; type: cell-based
Description: (§1) Cytotoxicity testing can be carried out according to standard methods. MDBK, PBM, HepG2, Huh7 and Vero cells were used. […]. […] Afterwards the plates containing the dye are read at 490 nm. Each assay was done in triplicate. Such methodologies are well described and available from the manufacturer (Promega).

in vitro = type: cell-based
Description: as §1

[3] = Cytotoxicity in HepG2 cells; type: cell-based; conditions: human
Experimental: (§2) Cytotoxicity testing can be carried out according to standard methods. MDBK, PBM, HepG2, Huh7 and Vero cells were used. […]. After a three day-incubation, cell viability and mitochondrial activity are measured by adding the MTS-dye (Promega), followed by a 3 hours incubation. Afterwards the plates containing the dye are read at 490 nm. Each assay was done in triplicate. Such methodologies are well described and available from the manufacturer (Promega).

human IMPDH = test: IMPDH inhibition (Ki); type: biochemical
[4] = Cytotoxicity in CEM cells; conditions: human, CEM cells
MDBK cells = test: Cytotoxicity in MDBK cells; type: cell-based
Description: as §1

PBMC = test: in vitro; type: cell-based; conditions: 7 days
Description: as §1

CEM = test: Cytotoxicity in CEM cells; conditions: read-out: CEM 7 days CC50; 7 days
[5] = renal transplanted patients, oral; cited from earlier work
IMPDH = conditions: literature (WO 95/22538); cited from earlier work
[6] = Toxicity of C2-MAD in Balb/c mice (body weight); type: in vivo; conditions: Balb/c mice, 10, 30 and 60 mg/kg/day, ten day treatment, versus water
Description: The results of this screening are illustrated in FIG. 4.

[7] = Cytotoxicity in Vero cells; type: cell-based; conditions: African green monkey
Experimental: as §2

BVDV [8] = test: BVDV real time RT-PCR antiviral assay in MDBK cells; type: cell-based, Bovine viral diarrhea virus (BVDV), strain NADL; conditions: dose-response, 24 hours post-infection
[9] = BVDV real time RT-PCR, after 22 hours, tested at 40 μM
[10] = Bovine viral diarrhea virus isolates and strains, MDBK, 22 h
[11] = Bovine viral diarrhea virus isolates and strains, MDBK, 24 h, read-out: Antiviral (24 hrs) EC90
[12] = 7 days, read-out: PBMC 7 days CC50
[13] = BVDV, 24 hrs, read-out: Antiviral (24 hrs) EC90
[14] = 24 hrs, read-out: MDBK (24 hrs) CC50
[15] = Table 2, 3 days, read-out: MDBK (3 Days) CC50

Compound: NC(=O)c1csc([C@@H]2O[C@H](CO)[C@@H](O)[C@H]2O)n1 [Tiazofurin]
- max log reduction Viral Load (BVDV [1]; [9]): >2 (40 μM) log
- EC90 (BVDV [1]; [10]): 30 µM
- EC90 (BVDV [1]; [11]): 7 µM
- Selectivity Index (24 hrs/24 hrs) CC50/EC90 (BVDV [1]): 14
- virus production / viral RNA versus negative control (BVDV [1]): almost complete absence of viral RNA
- CC50 at 24 h [2]: > 100 µM
- CC50 at 3 days ([2]; Table 1): 25 µM
- CC50 at 3 days ([2]; Table 2): 25 µM
- CC50 at 7 days (in vitro; [12]): 79.5 µM
- CC50 at 3 days [3]: > 100 µM
- Ki (human IMPDH; Table 2, read-out: IMPDH Ki): 0.11 µM
- CC50 at 7 days [4]: 73.4 µM

Compound: COc1c(C)c2c(c(O)c1CCO)C(=O)OC2 [C2-MPAlcohol, 6-(2-hydroxyethyl)-7-hydroxy-5-methoxy-4-methylphthalan-1-one]
- max log reduction Viral Load (BVDV [1]; [9]): 1.96 (40 μM) log
- EC90 (BVDV [1]; BVDV real time RT-PCR, after 22 hours, 1-log reduction in viral production, read-out: EC90): 40 µM
- EC90 (BVDV [1]; [13]): 40 µM
- CC50 (MDBK cells; [14]): > 100 µM
- CC50 (MDBK cells; Table 1, 3 days, read-out: MDBK 3 days CC50): 7 µM
- CC50 (MDBK cells; [15]): 7 µM
- CC50 (PBMC): > 100 µM
- CC50 (CEM): 91 µM

Compound: COc1c(C)c2c(c(O)c1C/C=C(\C)CCC(=O)OCCN1CCOCC1)C(=O)OC2 [MMF, mycophenolate mofetil]
- MPA Tmax [5]: 48 min

Compound: NC(=O)c1ncn([C@H]2O[C@@H](CO)[C@H](O)[C@@H]2O)n1 [L-Ribavirin]
- EC90 (BVDV [1]; [13]): > 100 µM
- CC50 (MDBK cells; [14]): > 100 µM
- CC50 (MDBK cells; [15]): > 100 µM

Compound: COC(=O)CC/C(C)=C/Cc1c(O)c2c(c(C)c1OC)COC2=O [MPA-O-Me]
- max log reduction Viral Load (BVDV [1]; BVDV real time RT-PCR, after 22 hours, tested at 100 μM): 3.32 (100 μM) log
- EC90 (BVDV [1]; [13]): < 1 µM
- CC50 (MDBK cells; [14]): > 100 µM
- CC50 (MDBK cells; [15]): 0.4 µM
- Ki (human IMPDH; Table 2, read-out: IMPDH Ki): 0.5 µM

- melting point: 210 to 212 °C
Compound: NC(=O)c1cncc([C@H]2O[C@H](CO)[C@@H](O)[C@H]2O)c1

- melting point: 169 to 171 °C
Compound: N#Cc1cncc([C@@H]2O[C@H](CO)[C@@H](O)[C@H]2O)c1

Compound: COc1c(C)c2c(c(O)c1CC=O)C(=O)OC2 [C2-MPAld]
- EC90 (BVDV [1]; [13]): > 100 µM
- virus production / viral RNA versus negative control (BVDV [1]): non-active
- CC50 (MDBK cells): > 100 µM

Compound: NC(=O)c1ncn([C@@H]2O[C@H](CO)[C@@H](O)[C@H]2O)c1O [Mizoribine]
- EC90 (BVDV [1]; Bovine viral diarrhea virus isolates and strains, MDBK): > 100 µM
- EC90 (BVDV [1]; [11]): > 100 µM
- Selectivity Index (24 hrs/24 hrs) CC50/EC90 (BVDV [1]): 1
- virus production / viral RNA versus negative control (BVDV [1]): non-active
- CC50 at 24 h [2]: > 100 µM
- CC50 at 3 days ([2]; Table 2): > 100 µM
- Ki (human IMPDH; human IMPDH, read-out: Ki): 0.004 µM

Compound: COc1c(C)c2c(c(O)c1C/C=C(\C)CCC(=O)O)C(=O)OC2 [Mycophenolic Acid (MPA), Mycophenolic Acid]
- max log reduction Viral Load (BVDV [1]; [9]): >2 (40 μM) log
- EC90 (BVDV [1]; [10]): 1 µM
- EC90 (BVDV [1]; [11]): < 1 µM
- virus production / viral RNA versus negative control (BVDV [1]): almost complete absence of viral RNA
- CC50 at 24 h ([2]; bovine, MDBK cells): > 100 µM
- CC50 at 3 days ([2]; bovine, MDBK cells, Table 1): 2 µM
- CC50 at 3 days ([2]; bovine, MDBK cells, Table 2): 2 µM
- CC50 at 7 days (in vitro): 75.4 µM
- CC50 at 7 days [4]: 0.05 µM

Compound: COc1c(C)c2c(c(O)c1C/C=C(\C)CCCOP(=O)(O)CP(=O)(O)OC[C@H]1O[C@@H](n3cnc4c(N)ncnc43)[C@H](O)[C@@H]1O)C(=O)OC2 [C6-MAD]
- EC90 (BVDV [1]; [13]): > 100 µM
- virus production / viral RNA versus negative control (BVDV [1]): non-active
- CC50 (MDBK cells): > 100 µM
- Ki (human IMPDH; Table 2, read-out: IMPDH Ki): 0.3 µM

Compound: COc1c(C)c2c(c(O)c1C/C=C(\C)C=O)C(=O)OC2 [C4-MPAld]
- EC90 (BVDV [1]; [13]): > 100 µM
- virus production / viral RNA versus negative control (BVDV [1]): non-active
- CC50 (MDBK cells): > 100 µM

Compound: COc1c(C)c2c(c(O)c1CCOP(=O)(O)CP(=O)(O)OC[C@H]1O[C@@H](n3cnc4c(N)ncnc43)C(O)[C@H]1O)C(=O)OC2 (stereo partly drawn) [C2-MAD]
- max log reduction Viral Load (BVDV [1]; [9]): 1.9 (40 μM) log
- CC50 at 24 h [2]: > 100 µM
- CC50 at 3 days ([2]; Table 1): 50 µM
- CC50 at 3 days ([2]; Table 2): 9 µM
- CC50 at 7 days (in vitro; [12]): 45.9 µM
- toxic effects: weight gain or loss (FIG. 4) [6]: does not contribute to significant weight gain or loss
- CC50 at 7 days [4]: 17.7 µM

Compound: NC(=O)c1ncn([C@@H]2O[C@H](CO)[C@@H](O)[C@H]2O)n1 [Ribavirin]
- max log reduction Viral Load (BVDV [1]; [9]): >2 (40 μM) log
- EC50 (BVDV [1]; [10]): 0.7 µM
- EC90 (BVDV [1]; [10]): 5 µM
- EC90 (BVDV [1]; [11]): 2 µM
- Selectivity Index (24 hrs/24 hrs) CC50/EC90 (BVDV [1]): 5
- virus production / viral RNA versus negative control (BVDV [1]): almost complete absence of viral RNA
- CC50 at 24 h [2]: > 100 µM
- CC50 at 3 days ([2]; Table 1): 4 µM
- CC50 at 3 days ([2]; Table 2): 5 µM
- CC50 at 3 days [7]: > 100 µM
- CC50 at 7 days (in vitro; [12]): > 100 µM
- CC50 at 3 days [3]: 80 µM
- Ki (human IMPDH; Table 2, read-out: IMPDH Ki): 0.2 µM
- intracellular viral RNA reduction, relative effectiveness (FIG. 9) (BVDV [8]): more effective than C2-MAD
- CC50 at 7 days [4]: 75 µM

Compound: NC(=O)c1cccc(C2OC(CO)C(O)C2O)c1 (stereo not drawn) [Benzamide Riboside]
- max log reduction Viral Load (BVDV [1]; [9]): >2 (40 μM) log
- EC90 (BVDV [1]; [10]): 3 µM
- EC90 (BVDV [1]; [11]): 3 µM
- Selectivity Index (24 hrs/24 hrs) CC50/EC90 (BVDV [1]): 4
- CC50 at 24 h ([2]; bovine, MDBK cells): 13 µM
- CC50 at 3 days ([2]; bovine, MDBK cells, Table 1): 4 µM
- CC50 at 3 days ([2]; bovine, MDBK cells, Table 2): 3 µM
- CC50 (in vitro): < 17 µM
- CC50 at 3 days ([3]; HepG2 cells): 8 µM
- Ki (human IMPDH; Table 2, read-out: IMPDH Ki): 0.66 µM

Compound: Nc1nc2c(ncn2[C@@H]2O[C@H](CO)[C@@H](O)[C@H]2O)c(=O)[nH]1 [guanosine]
- virus production / viral RNA versus negative control (BVDV [1]): non-active

Compound: NC(=O)c1csc(C2OC(COP(=O)(O)CP(=O)(O)OCC3OC(n4cnc5c(N)ncnc54)C(O)C3O)C(O)C2O)n1 (stereo not drawn) [β-CH2-TAD]
- max log reduction Viral Load (BVDV [1]; [9]): 0.94 (40 μM) log
- EC90 (BVDV [1]; [11]): > 100 µM
- Selectivity Index (24 hrs/24 hrs) CC50/EC90 (BVDV [1]): 1
- CC50 at 24 h ([2]; bovine, MDBK cells): > 100 µM
- CC50 at 3 days ([2]; bovine, MDBK cells, Table 1): 70 µM
- CC50 at 3 days ([2]; bovine, MDBK cells, Table 2): 70 µM
- CC50 at 7 days (in vitro): > 100 µM
- Ki (human IMPDH; Table 2, read-out: IMPDH Ki): 0.11 µM
- CC50 at 7 days [4]: 47.8 µM

Compound: NC(=O)c1cccc([C@@H]2O[C@H](COP(=O)(O)CP(=O)(O)OCC3OC(n4cnc5c(N)ncnc54)C(F)C3O)[C@@H](O)[C@H]2O)c1 (stereo partly drawn) [F-ara-CH2-BAD]
- EC90 (BVDV [1]; [13]): > 100 µM
- virus production / viral RNA versus negative control (BVDV [1]): non-active
- CC50 (MDBK cells; [14]): > 100 µM
- CC50 (MDBK cells; [15]): > 100 µM
- Ki (human IMPDH; Table 2, read-out: IMPDH Ki): 175 µM
